According to BindingDB's records for doi:10.7270/Q2S46QC1 (Nmmlsc, 2009):

target: Apoptosis regulator Bcl-2 (Homo sapiens, UniProt P10415); test: Bcl-2 Bim peptide interaction hit potency – biochemical, dose response, multiplexed HTS hits, confirmation (AID 2075); conditions: not given
Sequence (P10415 whole entry): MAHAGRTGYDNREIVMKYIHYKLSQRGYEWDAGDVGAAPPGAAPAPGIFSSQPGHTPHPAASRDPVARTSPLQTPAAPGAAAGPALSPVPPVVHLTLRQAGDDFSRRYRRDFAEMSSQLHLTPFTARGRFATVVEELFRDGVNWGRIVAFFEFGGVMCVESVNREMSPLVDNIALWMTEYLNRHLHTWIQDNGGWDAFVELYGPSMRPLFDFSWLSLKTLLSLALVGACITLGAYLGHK

Structure (SMILES) | EC50
O=C1NC(=O)C2(Cc3c(nc4ccccn4c3=O)N3CCCCCC32)C(=O)N1Cc1ccccc1 (configuration not stated) [MLS000083668] | 2.25 µM
O=[N+]([O-])c1c(NCCCO)cc(Sc2nc3ccccc3s2)c2nonc12 [MLS000520994] | 1.91 µM
CN(CCO)c1cc(Sc2nc3ccccc3s2)c2nonc2c1[N+](=O)[O-] [MLS000520995] | 6.35 µM
CC(=O)OCCCNc1cc(Sc2nc3ccccc3s2)c2nonc2c1[N+](=O)[O-] [MLS000521052] | 0.84 µM
Cc1cc2nn(-c3cccc4ccccc34)nc2cc1N [SMR000076237] | 1.9 µM
Cc1ccc(C=NNC(=O)CSc2nnc(-c3ccc(Cl)cc3)n2-c2ccccc2)o1 [SMR000218122] | 12.3 µM

same assay, conditions: inactive by the depositor's call

Structure (SMILES) | EC50
O=C(NCc1ccccc1)c1ccc2nc(-c3ccco3)c(-c3ccco3)nc2c1 [2,3-bis(furan-2-yl)-N-(phenylmethyl)quinoxaline-6-carboxamide] | 20.6 µM
Cc1ccc(-c2nc3c(c(=O)[nH]c(=O)n3Cc3ccccc3)n2C)o1 [7-methyl-8-(5-methyl-2-furanyl)-3-(phenylmethyl)purine-2,6-dione] | 48.2 µM
Clc1nc(NCc2cccnc2)nc(N2CCOCC2)n1 [MLS000121154] | 18.9 µM
COc1ccc(CCNC(=O)c2ccc3nc(-c4ccco4)c(-c4ccco4)nc3c2)cc1OC [N-[2-(3,4-dimethoxyphenyl)ethyl]-2,3-di-2-furylquinoxaline-6-carboxamide] | 25.8 µM
COc1ccccc1NC1=C(NC(C)=O)C(=O)c2ccccc2C1=O [N-[3-(2-methoxyanilino)-1,4-dioxonaphthalen-2-yl]acetamide] | 12.1 µM
CCN(CC)C(=O)COC(=O)c1cc(-c2ccco2)nc2ccccc12 [SMR000377201] | 29.5 µM
